One assay relates to HUVECs. Briefly: Endothelial cell apoptosis assay (TUNEL, ApopTag). It is filed as cell-based, human. The note with it: for induction of endothelial cell apoptosis: in vitro, low serum (0.2%). Here is the method:
FIG. 5. Endothelial cell apoptosis induced by TGA and ERT-L PEDF peptides. 90% confluent HUVECs were treated with increasing concentrations of TGA (FIG. 5A) or ERT-L (FIG. 5B). Apoptotic cells were detected with ApopTag assay kit (Intergen) and percent of TUNEL positive cells calculated.
Apoptosis by PEDF and by the 34-mer were mediated by the same signaling events including activation of JNK-1. Apoptosis by both PEDF and by its 34-mer fragment were abolished in the presence of JNK-1 specific inhibitor SP600125 (BioMol). […] The 44-mer had no activity.
Cells were plated on gelatinized glass cover slips in 24-well tissue culture plates at 5×10^4 cells/well, treated with indicated compounds in low serum (0.2%), fixed in 1% buffered paraformaldehyde, stained using the ApopTag in situ cell death detection kit according to the manufacturer's instructions (Serologicals corporation) and counterstained with propidium iodide. The percentage of terminal deoxynucleotidyl transferase-mediated dUTP nick end labeling (TUNEL)-positive cells was calculated as the number of TUNEL-positive cells (counted in 2-6 randomly selected fields from two different chambers) divided by the total number of cells. 600-1200 cells were scored for each treatment.
Human umbilical vein endothelial cells (HUVEC, NCI) were grown to 90% confluence and treated with peptides overnight in low (0.2%) serum. Apoptotic cells were detected using TUNEL assay kit (InterGene) and percent apoptotic cells were calculated (FIG. 5).

The test system of assay [1] is Microvascular endothelial cells (HMVECs). The assay can be described thus: VEGF-induced endothelial cell chemotaxis/migration assay (Boyden chamber). It is filed as cell-based, human. The note with it: at 100 nM (44-mer: 100 nM or higher). Here is the method:
FIG. 3. In vitro anti-angiogenic activity by […] and 44-mer PEDF peptides. Microvascular endothelial cells (HMVECs) chemotaxis up the gradient of pro-angiogenic VEGF was examined in the presence of the 44-mer or 34-mer. FIG. 3A Recombinant PEDF (rPEDF, BH) (10 nM), 34-mer (1 μM) and 44-mer (1 μM) were tested alone (empty bars), or in the presence of VEGF (hatched bars). Anti-PEDF neutralizing antibodies were added where shown (filled bars). FIG. 3B 34-mer (●) and 44-mer (♦) were tested with VEGF (100 pg/ml) at increasing concentrations. ED50 was determined using regression curves.
Two large peptides from PEDF, a “34-mer” (amino acids 24-57 of SEQ ID NO:1) and a “44-mer” (residues 58-101 of SEQ ID NO:1), were tested for their ability to block angiogenesis. […] (Alberdi et al., 1999) In the anti-angiogenesis assays, only the 34-mer inhibited VEGF-induced angiogenesis in vitro. Anti-angiogenic activity of the 34-mer peptide was blocked with neutralizing antibodies effective against the whole molecule.
HUVEC migration assay are performed as previously described (Good et al., PNAS, 1990). […] Then, the stained membranes are dried, mounted, and the cells migrated to the top part of membrane counted in 10 high-powered (400×) fields. […]

Assay [2] concerns endothelial cells (HUVEC). The assay can be described thus: Endothelial cell migration up the gradient of pro-angiogenic bFGF. Type of assay: cell-based, human. The procedure:
HUVEC migration assay are performed as previously described (Good et al., PNAS, 1990). The cells are starved overnight in MCDB131 medium supplemented with 0.1% bovine serum albumin (BSA, Sigma) and placed at 1.5 10^6 cells/ml in the bottom part of a 48-well modified Boyden chambers (Neuroprob Corp.), separated from the top part by gelatinized micro porous membrane (8 μm pore size, Nucleopor/Whatman). The inverted chambers are incubated for 1.5 h for the cells to attach. The chamber are then re-inverted, test substances added to the top part of the top well and incubated for additional 3h30 to allow migration. The chamber are disassembled, the membranes fixed, the cells visualized using Diff-Quick staining kit (Fisher). Then, the stained membranes are dried, mounted, and the cells migrated to the top part of membrane counted in 10 high-powered (400×) fields. MCDB131 containing 0.1% BSA, is used as a negative control and 10 ng/ml bFGF as a positive control. Each substance is tested in quadruplicate to allow statistical evaluation of the data within a single experiment. Each experiment is repeated 3 times to ensure the reproducibility.
The peptides were tested in vitro for their ability to block endothelial cell migration up the gradient of pro-angiogenic bFGF.

In assay [3] the test system is bFGF-induced corneal angiogenesis. Briefly: Mouse corneal neovascularization assay (bFGF pellet). Type of assay: in vivo. The note with it: for effect on mouse corneal neovascularization in vivo: bFGF pellet, peptides at 10 and 100 μM; for Positive comeas/total: bFGF 50 ng/pellet, day 5 after implantation. The procedure: Angiogenesis was induced in the mouse cornea by implanting slow release pellets containing bFGF (50 ng/pellet). Peptides at 10 and 100 μM were added where indicated. Angiogenesis was observed on day 5 after implantation and a vigorous ingrowth of the blood vessels reaching the pellet was scored as a positive response. The peptide abbreviations are as above; PBS is phosphate buffer solution.

In assay [4] the test system is Y-79 retinoblastoma cells. The note with it: previously shown (Alberdi et al., 1999); cited from earlier work.

Consider “DPFFKVPVNKLAAAVSNFGYDLYRVRSSMSPTTN [34-mer]”, for which, in the assay with HUVECs (cultured endothelial cells), the “dose at which maximal apoptosis effect is reached” value amounted to 100 nM. In addition, the “inhibition of VEGF-induced endothelial cell chemotaxis” value in assay [1] was “inhibited”.
For the substance “acetyl-TGALVEEEDPF-amide (Ac-TGALVEEEDPF-NH2) [PEDF residues 16-26]”, the “induction of endothelial cell apoptosis” value in the assay on HUVECs is given as “induced apoptosis”. For the same substance, in assay [2], the “ability to block endothelial cell migration up the gradient of bFGF” value was “showed anti-angiogenic activity”. Also, in assay [3], the “effect on mouse corneal neovascularization in vivo” value is recorded as “blocked mouse corneal neovascularization”. In addition, the values for the Positive comeas/total in assay [3] (peptide 10 μM) and in assay [3] (peptide 100 μM) were 4/6 and 2/6, respectively.
In the case of “acetyl-ERTESIIHRALYYDLIS-amide (Ac-ERTESIIHRALYYDLIS-NH2) [ERT-L, PEDF residues 78-94]”, the “induction of endothelial cell apoptosis” value in the assay with HUVECs is reported as “induced apoptosis”. Further, the “ability to block endothelial cell migration up the gradient of bFGF” value in assay [2] is recorded as “showed anti-angiogenic activity”. The “effect on mouse corneal neovascularization in vivo” value in assay [3] is given as “blocked mouse corneal neovascularization”. Besides, the Positive comeas/total in assay [3] (peptide 10 μM) was 2/6; in assay [3] (peptide 100 μM), 1/5.
Consider “acetyl-ERTESIIHRAL-amide (Ac-ERTESIIHRAL-NH2) [ERT-S, PEDF residues 78-88]”, for which the results for the Positive comeas/total in assay [3] (peptide 10 μM) and in assay [3] (peptide 100 μM) were 5/6 and 4/6, respectively.
For “acetyl-SSPDIHGTYKE-amide (Ac-SSPDIHGTYKE-NH2) [PEDF residues 94-104]” the same measures were 6/6 and 4/4.
Turning to “acetyl-LYYDLISSPDIHGTYKE-amide (Ac-LYYDLISSPDIHGTYKE-NH2) [PEDF residues 88-104]”, the figures for the Positive comeas/total in assay [3] (peptide 10 μM) and in assay [3] (peptide 100 μM) were 5/6 and 5/5, respectively.
With “44-mer: PEDF peptide, residues 58-101 of SEQ ID NO:1, previously shown to have neurotrophic activity (VLLSPLSVATALSALSLGAEQRTESIIHRALYYDLISSPDIHGT; listed as Homo sapiens) [reference compound]”, in assay [4], the “binding to and differentiation of Y-79 retinoblastoma cells” value is “bind to and induce differentiation”. For the same substance, in the assay with HUVECs, the “induction of endothelial cell apoptosis” value is recorded as “no activity”. In addition, the “inhibition of VEGF-induced endothelial cell chemotaxis” value in assay [1] is recorded as “no inhibitory activity”.

The record behind these values is US20060189519A1, “Anti-angiogenic fragments fo pigment epithelium-derived factor (pedf)” (priority 2002, published 2006).
